The results in this text go back to patent publication US12180207B2 (ARRAY BIOPHARMA INC., priority 2018, dated 2024).

The target in experiment [1] is recombinant human FGFR2 cytoplasmic domain (amino acids 403-822) (Homo sapiens (Human), UniProt P21802). The experiment can be described thus: FGFR2 enzyme activity assay (LanthaScreen TR-FRET). The experiment is classed as biochemical. To be noted: 15 μM ATP, 20 min incubation at 22° C., average of multiple determinations if made, read-out: FGFR2 Enz FRET IC50. Summed up: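 His-tagged FGFR2 cytoplasmic domain ([…]) with 100 nM Alexa Fluor 647-poly-GT peptide and 15 μM ATP in HEPES/MgCl2/Triton buffer, pH 7.5, 2% DMSO, 20 min at 22 °C. EDTA-quenched, Eu-PY20 antibody added, TR-FRET read after 60 min.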
Chain of recombinant human FGFR2 cytoplasmic domain (amino acids 403-822) (P21802 402-821): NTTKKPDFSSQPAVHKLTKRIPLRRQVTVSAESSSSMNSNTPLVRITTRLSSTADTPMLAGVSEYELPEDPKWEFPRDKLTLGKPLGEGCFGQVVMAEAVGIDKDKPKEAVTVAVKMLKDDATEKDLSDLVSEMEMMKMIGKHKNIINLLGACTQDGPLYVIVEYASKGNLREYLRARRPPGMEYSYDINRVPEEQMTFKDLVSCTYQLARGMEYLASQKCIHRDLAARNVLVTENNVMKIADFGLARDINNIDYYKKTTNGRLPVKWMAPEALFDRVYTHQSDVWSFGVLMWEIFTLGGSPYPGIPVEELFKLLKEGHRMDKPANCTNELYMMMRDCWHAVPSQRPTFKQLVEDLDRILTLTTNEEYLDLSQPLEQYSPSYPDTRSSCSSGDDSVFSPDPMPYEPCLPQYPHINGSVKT
(TR-FRET usually uses a lanthanide donor and a delayed reading to cut background.)

The target of experiment [2] is FGFR3 (SEQ ID NO: 5, amino acids 449-759) (Homo sapiens (Human), UniProt P22607). The experiment can be described thus: LC/MS FGFR3 kobs assay (covalent protein modification). The format is binding. To be noted: 500 nM FGFR3, 3 μM compound. A digest of the protocol: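 The observed rate constant kobs comes from an exponential decay fit of percent unmodified kinase over time. Covalent modification was quantified by Q-TOF LC/MS of formic acid-quenched samples, normalized against DMSO controls.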
Chain of FGFR3 (SEQ ID NO: 5, amino acids 449-759) (P22607 449-759): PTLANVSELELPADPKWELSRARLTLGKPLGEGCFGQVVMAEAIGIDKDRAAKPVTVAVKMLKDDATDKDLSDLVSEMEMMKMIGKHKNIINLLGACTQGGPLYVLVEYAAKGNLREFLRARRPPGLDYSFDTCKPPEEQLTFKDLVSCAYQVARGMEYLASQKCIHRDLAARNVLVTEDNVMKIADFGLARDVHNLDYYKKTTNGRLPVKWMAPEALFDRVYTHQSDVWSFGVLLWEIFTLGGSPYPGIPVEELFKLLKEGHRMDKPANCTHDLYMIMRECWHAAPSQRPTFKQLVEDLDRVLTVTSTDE

Experiment [3] deals with T1, HEK-293 cells transfected with dox-inducible human wild type FGFR3 (Homo sapiens (Human), UniProt P22607). The experiment can be described thus: FGFR3 pERK cell assay. The experiment is classed as cell-based. To be noted: HEK-293 dox-inducible FGFR3, 1 hour compound, 100 ng/ml FGF-acidic; maximum concentration 5 μM. Summed up: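 Doxycycline-induced cells preincubated 1 h at 37 °C with compound (1:3 dilutions, top 5 μM final), then stimulated 5 min with 100 ng/ml FGF-acidic. Lysate phospho-ERK1/2 measured by MSD sandwich assay; IC50 at 50 POC from 4-parameter fit, normalised to no-compound and control-compound wells.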
T1 sequence (P22607 23-806): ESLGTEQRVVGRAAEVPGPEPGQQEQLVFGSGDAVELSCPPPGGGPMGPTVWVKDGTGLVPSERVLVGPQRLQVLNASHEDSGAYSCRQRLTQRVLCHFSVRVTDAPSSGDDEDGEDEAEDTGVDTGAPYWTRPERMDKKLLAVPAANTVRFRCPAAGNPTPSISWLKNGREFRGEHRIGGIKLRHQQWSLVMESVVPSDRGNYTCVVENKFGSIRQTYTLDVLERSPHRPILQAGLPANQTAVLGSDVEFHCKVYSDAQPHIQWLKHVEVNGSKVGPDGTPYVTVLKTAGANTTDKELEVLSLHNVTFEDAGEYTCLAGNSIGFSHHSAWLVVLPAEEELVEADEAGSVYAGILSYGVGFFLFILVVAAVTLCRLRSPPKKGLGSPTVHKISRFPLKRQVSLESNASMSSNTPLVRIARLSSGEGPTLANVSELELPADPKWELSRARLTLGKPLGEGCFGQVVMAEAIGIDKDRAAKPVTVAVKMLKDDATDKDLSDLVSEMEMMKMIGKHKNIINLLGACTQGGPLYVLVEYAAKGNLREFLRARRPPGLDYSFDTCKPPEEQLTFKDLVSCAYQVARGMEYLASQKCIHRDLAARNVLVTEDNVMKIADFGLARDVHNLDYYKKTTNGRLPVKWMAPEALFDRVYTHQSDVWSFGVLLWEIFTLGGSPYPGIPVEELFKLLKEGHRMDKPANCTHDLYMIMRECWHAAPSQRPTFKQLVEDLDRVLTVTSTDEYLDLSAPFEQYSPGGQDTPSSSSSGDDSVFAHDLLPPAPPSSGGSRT

The target in experiment [4] is T1, HEK-293 cells transfected with dox-inducible human wild type FGFR3. The experiment can be described thus: FGFR3 pFGFR cell assay (ELISA). Conditions: HEK-293 dox-inducible FGFR3, 1 hour compound, 100 ng/ml FGF-acidic. The experiment is classed as cell-based. Summed up: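 Doxycycline-induced (1 μg/ml) HEK-293 cells expressing wild-type human FGFR3, treated 1 h with compound (1:3 series, top final 5 μM), then stimulated 5 min with 100 ng/ml FGF-acidic. Phospho-FGFR3 measured by ELISA (total FGFR3 capture, phosphotyrosine detection, OD 450 nm); IC50 from 4-parameter fit of POC values.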

As usually defined, the IC50 is the concentration that gives 50% inhibition. For `C=CC(=O)N1C2CC1CN(C(=O)N1CCC(n3cc(-c4cc(OC)c5c(C#N)cnn5c4)cn3)CC1)C2` [Example 1, 6-(1-(1-(6-acryloyl-3,6-diazabicyclo[3.1.1]heptane-3-carbonyl)piperidin-4-yl)-1H-pyrazol-4-yl)-4-methoxypyrazolo[1,5-a]pyridine-3-carbonitrile], the results for the IC50 in experiment [1], in experiment [3] and in experiment [4] were 15 nM, 86 nM and 26 nM, respectively. Also, the “FGFR3 Enz kobs” value in experiment [2] worked out at 0.01496 min⁻¹.

On to `C=CC(=O)N1C2COCC1CN(C(=O)N1CCC(n3cc(-c4cc(OC)c5c(C#N)cnn5c4)cn3)CC1)C2` [Example 3, 6-(1-(1-(9-acryloyl-3-oxa-7,9-diazabicyclo[3.3.1]nonane-7-carbonyl)piperidin-4-yl)-1H-pyrazol-4-yl)-4-methoxypyrazolo[1,5-a]pyridine-3-carbonitrile], for which the results for the IC50 in experiment [1], in experiment [3] and in experiment [4] were 5 nM, 108 nM and 41 nM, respectively. Besides, in experiment [2], the “FGFR3 Enz kobs” value was 0.01875 min⁻¹.

`C=CC(=O)N1CCC(C#N)(C(=O)N2CCC(n3cc(-c4cc(OC)c5c(C#N)cnn5c4)cn3)CC2)C1` (centres unmarked) [Example 31, 6-(1-(1-(1-acryloyl-3-cyanopyrrolidine-3-carbonyl)piperidin-4-yl)-1H-pyrazol-4-yl)-4-methoxypyrazolo[1,5-a]pyridine-3-carbonitrile]: the IC50 stood at 2 nM in experiment [1], 26 nM in experiment [3] and 15 nM in experiment [4]. Besides, in experiment [2], the “FGFR3 Enz kobs” value amounted to 0.02377 min⁻¹.

`C=CC(=O)N1CC(C(=O)N2CCC(n3cc(-c4cc(OC)c5c(C#N)cnn5c4)cn3)CC2)C1` [Example 36, 6-(1-(1-(1-acryloylazetidine-3-carbonyl)piperidin-4-yl)-1H-pyrazol-4-yl)-4-methoxypyrazolo[1,5-a]pyridine-3-carbonitrile]: the “FGFR3 Enz kobs” value in experiment [2] is 0.01426 min⁻¹. For the same compound, the IC50 in experiment [3] amounted to 43 nM; in experiment [4] it was 37 nM.

Turning to `C=CC(=O)N1CC(F)(C(=O)N2CCC(n3cc(-c4cc(OC)c5c(C#N)cnn5c4)cn3)CC2)C1` [Example 37, 6-(1-(1-(1-acryloyl-3-fluoroazetidine-3-carbonyl)piperidin-4-yl)-1H-pyrazol-4-yl)-4-methoxypyrazolo[1,5-a]pyridine-3-carbonitrile], the IC50 in experiment [1] turned out to be 7 nM; in experiment [3] it was 8 nM; in experiment [4] it was 12 nM. Moreover, the “FGFR3 Enz kobs” value in experiment [2] stood at 0.07092 min⁻¹.

As for `C=CC(=O)N1CC(C#N)(C(=O)N2CCC(n3cc(-c4cc(OC)c5c(C#N)cnn5c4)cn3)CC2)C1` [Example 39, 6-(1-(1-(1-acryloyl-3-cyanoazetidine-3-carbonyl)piperidin-4-yl)-1H-pyrazol-4-yl)-4-methoxypyrazolo[1,5-a]pyridine-3-carbonitrile], the values for the IC50 in experiment [1], in experiment [3] and in experiment [4] were 5 nM, 8 nM and 101 nM, respectively. In addition, the “FGFR3 Enz kobs” value in experiment [2] was determined as 0.2019 min⁻¹.

Regarding `C=CC(=O)N1CC(OC)(C(=O)N2CCC(n3cc(-c4cc(OC)c5c(C#N)cnn5c4)cn3)CC2)C1` [Example 41, 6-(1-(1-(1-acryloyl-3-methoxyazetidine-3-carbonyl)piperidin-4-yl)-1H-pyrazol-4-yl)-4-methoxypyrazolo[1,5-a]pyridine-3-carbonitrile], the IC50 is 1 nM in experiment [1], 12 nM in experiment [3] and 10 nM in experiment [4]. Moreover, in experiment [2], the “FGFR3 Enz kobs” value amounted to 0.02709 min⁻¹.

For `C=CC(=O)N1CC(C(=O)N2CCC(n3cc(-c4cc(OC)c5c(C#N)cnn5c4)cn3)CC2)C1C` (centres unmarked) [Example 42, 6-(1-(1-(1-acryloyl-2-methylazetidine-3-carbonyl)piperidin-4-yl)-1H-pyrazol-4-yl)-4-methoxypyrazolo[1,5-a]pyridine-3-carbonitrile], the IC50 in experiment [1] was 6 nM; in experiment [3], 77 nM; in experiment [4] it was 31 nM. For the same compound, the “FGFR3 Enz kobs” value in experiment [2] turned out to be 0.01575 min⁻¹.

As to `C=CC(=O)N1CC(C(=O)N2CCC(n3cc(-c4cc(OC)c5c(C#N)cnn5c4)cn3)CC2)C1(C)C` (centres unmarked) [Example 43, 6-(1-(1-(1-acryloyl-2,2-dimethylazetidine-3-carbonyl)piperidin-4-yl)-1H-pyrazol-4-yl)-4-methoxypyrazolo[1,5-a]pyridine-3-carbonitrile], the IC50 in experiment [1] was 3 nM; in experiment [3], 90 nM; in experiment [4], 64 nM. In experiment [2], the “FGFR3 Enz kobs” value is 0.0041 min⁻¹.

Regarding `C=CC(=O)Nc1ccc(C(=O)N2CC[C@H](n3cc(-c4cc(OC)c5c(C#N)cnn5c4)cn3)C2)cc1C` [Example 70, (S)-N-(4-(3-(4-(3-cyano-4-methoxypyrazolo[1,5-a]pyridin-6-yl)-1H-pyrazol-1-yl)pyrrolidine-1-carbonyl)-2-methylphenyl)acrylamide], the IC50 in experiment [1] was determined as 4 nM; in experiment [4] it was 104 nM. Further, the “FGFR3 Enz kobs” value in experiment [2] is 0.0114 min⁻¹.

In the case of `C=CC(=O)Nc1ccc(C(=O)N2CC[C@H](n3cc(-c4cc(OC)c5c(C#N)cnn5c4)cn3)C2)cc1OC` [Example 71, (S)-N-(4-(3-(4-(3-cyano-4-methoxypyrazolo[1,5-a]pyridin-6-yl)-1H-pyrazol-1-yl)pyrrolidine-1-carbonyl)-2-methoxyphenyl)acryla72 mide], the IC50 in experiment [1] was found to be 4 nM; in experiment [4], 35 nM. In addition, in experiment [2], the “FGFR3 Enz kobs” value was found to be 0.02545 min⁻¹.

In the case of `C=CC(=O)N1CC(C(=O)N2CC[C@H](n3cc(-c4cc(OC)c5c(C#N)cnn5c4)cn3)C2)C1` [Example 73, (S)-6-(1-(1-(1-acryloylazetidine-3-carbonyl)pyrrolidin-3-yl)-1H-pyrazol-4-yl)-4-methoxypyrazolo[1,5-a]pyridine-3-carbonitrile], the IC50 was 4 nM in experiment [1] and 313 nM in experiment [4]. In addition, the “FGFR3 Enz kobs” value in experiment [2] was 0.00908 min⁻¹.

Regarding `C=CC(=O)N1CC[C@H](C(=O)N2CC(n3cc(-c4cc(OC)c5c(C#N)cnn5c4)cn3)C2)C1` [Example 76, (S)-6-(1-(1-(1-acryloylpyrrolidine-3-carbonyl)azetidin-3-yl)-1H-pyrazol-4-yl)-4-methoxypyrazolo[1,5-a]pyridine-3-carbonitrile], the values for the IC50 in experiment [1] and in experiment [4] were 17 nM and 1900 nM, respectively. For the same compound, the “FGFR3 Enz kobs” value in experiment [2] was 0.00317 min⁻¹.

Consider `C=CC(=O)N1CC(C(=O)N2CC(n3cc(-c4cc(OC)c5c(C#N)cnn5c4)cn3)C2)C1` [Example 78, 6-(1-(1-(1-acryloylazetidine-3-carbonyl)azetidin-3-yl)-1H-pyrazol-4-yl)-4-methoxypyrazolo[1,5-a]pyridine-3-carbonitrile], for which the IC50 in experiment [1] worked out at 23 nM; in experiment [4] it was 536 nM. In experiment [2], the “FGFR3 Enz kobs” value worked out at 0.01629 min⁻¹.

In the case of `C=CC(=O)N1CC(CN2CC(n3cc(-c4cc(OC)c5c(C#N)cnn5c4)cn3)C2)C1` [Example 81, 6-(1-(1-((1-acryloylazetidin-3-yl)methyl)azetidin-3-yl)-1H-pyrazol-4-yl)-4-methoxypyrazolo[1,5-a]pyridine-3-carbonitrile], the figures for the IC50 in experiment [1] and in experiment [4] were 8 nM and 117 nM, respectively. For the same compound, the “FGFR3 Enz kobs” value in experiment [2] worked out at 0.00615 min⁻¹.

Turning to `C=CC(=O)Nc1ccc(C(=O)N2CCC(n3cc(-c4cc(OC)c5c(C#N)cnn5c4)cn3)CC2)cc1` [Example 177, N-(4-(4-(4-(3-cyano-4-methoxypyrazolo[1,5-a]pyridin-6-yl)-1H-pyrazol-1-yl)piperidine-1-carbonyl)phenyl)acrylamide], the IC50 in experiment [1] amounted to 4 nM; in experiment [4], 57 nM. In addition, the “FGFR3 Enz kobs” value in experiment [2] came to 0.01958 min⁻¹.

Turning to `C=CS(=O)(=O)N[C@H]1CC[C@H](C(=O)N2CCC(n3cc(-c4cc(OC)c5c(C#N)cnn5c4)cn3)CC2)C1` [Example 190, N-((1S,3S)-3-(4-(4-(3-cyano-4-methoxypyrazolo[1,5-a]pyridin-6-yl)-1H-pyrazol-1-yl)piperidine-1-carbonyl)cyclopentyl)-ethenesulfonamide], the IC50 in experiment [1] is 3 nM; in experiment [4], 32 nM. For the same compound, the “FGFR3 Enz kobs” value in experiment [2] is 0.02714 min⁻¹.

As for `C=CS(=O)(=O)N[C@@H]1CC[C@H](C(=O)N2CCC(n3cc(-c4cc(OC)c5c(C#N)cnn5c4)cn3)CC2)C1` [Example 191, N-((1R,3S)-3-(4-(4-(3-cyano-4-methoxypyrazolo[1,5-a]pyridin-6-yl)-1H-pyrazol-1-yl)piperidine-1-carbonyl)cyclopentyl)-ethenesulfonamide], the IC50 in experiment [1] was 5 nM; in experiment [4] it was 20 nM. The “FGFR3 Enz kobs” value in experiment [2] was determined as 0.02236 min⁻¹.
